Data taken from the kinase profiling compilation of Christmann-Franck et al. (2016).

Legend:
Assay in all cases: radiometric filter-binding kinase assay, Kinase HotSpot
Settings in all cases: compound 0.5 µM; ATP 10 µM
AKT2 (human) = AKT2 (human) (UniProt P31751)
CAMK1G (human) = CAMK1G (human) (UniProt Q96NX5)
CAMK2A (human) = CAMK2A (human) (UniProt Q9UQM7)
CAMK2B (human) = CAMK2B (human) (UniProt Q13554)
CAMK2D (human) = CAMK2D (human) (UniProt Q13557)
CDK2 CCNA2 (human) = CDK2 CCNA2 (human) (UniProt P24941+P20248)
CDK3 CCNE1 (human) = CDK3 CCNE1 (human) (UniProt Q00526+P24864)
CDK4 CCND1 (human) = CDK4 CCND1 (human) (UniProt P24385+P11802)
CDK6 CCND3 (human) = CDK6 CCND3 (human) (UniProt P30281+Q00534)
CHEK1 (human) = CHEK1 (human) (UniProt O14757)
CLK1 (human) = CLK1 (human) (UniProt P49759)
DAPK1 (human) = DAPK1 (human) (UniProt P53355)
DAPK2 (human) = DAPK2 (human) (UniProt Q9UIK4)
EPHB2 (human) = EPHB2 (human) (UniProt P29323)
FLT3 (human) = FLT3 (human) (UniProt P36888)
HCK (human) = HCK (human) (UniProt P08631)
IKBKB (human) = IKBKB (human) (UniProt O14920)
INSRR (human) = INSRR (human) (UniProt P14616)
IRAK4 (human) = IRAK4 (human) (UniProt Q9NWZ3)
JAK2 JH1 JH2 (human) = JAK2 JH1 JH2 (human) (UniProt O60674)
MAP3K9 (human) = MAP3K9 (human) (UniProt P80192)
MKNK2 (human) = MKNK2 (human) (UniProt Q9HBH9)
PAK2 (human) = PAK2 (human) (UniProt Q13177)
PAK7 (human) = PAK7 (human) (UniProt Q9P286)
PDGFRA (human) = PDGFRA (human) (UniProt P16234)
PRKACA (human) = PRKACA (human) (UniProt P17612)
PRKCA (human) = PRKCA (human) (UniProt P17252)
PRKCB2 (human) = PRKCB2 (human) (UniProt P05771)
PRKG2 (human) = PRKG2 (human) (UniProt Q13237)
PRKX (human) = PRKX (human) (UniProt P51817)
ROCK1 (human) = ROCK1 (human) (UniProt Q13464)
SLK (human) = SLK (human) (UniProt Q9H2G2)
STK10 (human) = STK10 (human) (UniProt O94804)
STK11 (human) = STK11 (human) (UniProt Q15831)
STK3 (human) = STK3 (human) (UniProt Q13188)
SYK (human) = SYK (human) (UniProt P43405)
TAOK3 (human) = TAOK3 (human) (UniProt Q9H2K8)
TBK1 (human) = TBK1 (human) (UniProt Q9UHD2)
TGFBR1 (human) = TGFBR1 (human) (UniProt P36897)
TGFBR2 (human) = TGFBR2 (human) (UniProt P37173)
TSSK2 (human) = TSSK2 (human) (UniProt Q96PF2)
TYRO3 (human) = TYRO3 (human) (UniProt Q06418)

Chain of MAP3K9 (human) (P80192 whole entry, looked up): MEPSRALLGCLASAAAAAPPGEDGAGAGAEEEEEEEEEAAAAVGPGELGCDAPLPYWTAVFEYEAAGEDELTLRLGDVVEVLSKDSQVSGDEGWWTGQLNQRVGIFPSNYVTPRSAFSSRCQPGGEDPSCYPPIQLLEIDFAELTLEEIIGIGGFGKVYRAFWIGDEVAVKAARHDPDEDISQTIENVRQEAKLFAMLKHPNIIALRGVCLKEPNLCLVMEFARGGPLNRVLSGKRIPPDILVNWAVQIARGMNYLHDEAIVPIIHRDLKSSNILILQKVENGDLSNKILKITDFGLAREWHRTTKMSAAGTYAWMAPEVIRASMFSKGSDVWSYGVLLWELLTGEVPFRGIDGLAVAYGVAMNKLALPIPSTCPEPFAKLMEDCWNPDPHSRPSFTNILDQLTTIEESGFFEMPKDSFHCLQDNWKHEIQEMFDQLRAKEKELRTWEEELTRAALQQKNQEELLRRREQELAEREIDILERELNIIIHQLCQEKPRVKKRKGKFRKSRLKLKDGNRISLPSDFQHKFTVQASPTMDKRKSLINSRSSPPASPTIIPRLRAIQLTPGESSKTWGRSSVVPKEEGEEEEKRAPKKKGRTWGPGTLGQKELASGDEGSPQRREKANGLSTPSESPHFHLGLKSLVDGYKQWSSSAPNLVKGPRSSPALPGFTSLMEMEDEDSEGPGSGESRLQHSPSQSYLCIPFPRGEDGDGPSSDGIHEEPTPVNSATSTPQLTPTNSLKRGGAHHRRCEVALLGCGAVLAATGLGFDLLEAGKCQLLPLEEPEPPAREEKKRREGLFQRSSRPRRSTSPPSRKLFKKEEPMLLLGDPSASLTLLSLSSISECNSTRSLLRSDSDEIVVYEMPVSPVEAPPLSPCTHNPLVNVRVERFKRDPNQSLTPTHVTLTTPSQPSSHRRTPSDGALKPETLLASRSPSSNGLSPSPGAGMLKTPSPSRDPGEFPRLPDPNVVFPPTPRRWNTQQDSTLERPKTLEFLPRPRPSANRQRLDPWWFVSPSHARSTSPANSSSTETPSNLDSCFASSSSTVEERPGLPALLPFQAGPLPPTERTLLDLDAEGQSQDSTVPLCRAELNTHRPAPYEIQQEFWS
Chain of CAMK2B (human) (Q13554 whole entry, looked up): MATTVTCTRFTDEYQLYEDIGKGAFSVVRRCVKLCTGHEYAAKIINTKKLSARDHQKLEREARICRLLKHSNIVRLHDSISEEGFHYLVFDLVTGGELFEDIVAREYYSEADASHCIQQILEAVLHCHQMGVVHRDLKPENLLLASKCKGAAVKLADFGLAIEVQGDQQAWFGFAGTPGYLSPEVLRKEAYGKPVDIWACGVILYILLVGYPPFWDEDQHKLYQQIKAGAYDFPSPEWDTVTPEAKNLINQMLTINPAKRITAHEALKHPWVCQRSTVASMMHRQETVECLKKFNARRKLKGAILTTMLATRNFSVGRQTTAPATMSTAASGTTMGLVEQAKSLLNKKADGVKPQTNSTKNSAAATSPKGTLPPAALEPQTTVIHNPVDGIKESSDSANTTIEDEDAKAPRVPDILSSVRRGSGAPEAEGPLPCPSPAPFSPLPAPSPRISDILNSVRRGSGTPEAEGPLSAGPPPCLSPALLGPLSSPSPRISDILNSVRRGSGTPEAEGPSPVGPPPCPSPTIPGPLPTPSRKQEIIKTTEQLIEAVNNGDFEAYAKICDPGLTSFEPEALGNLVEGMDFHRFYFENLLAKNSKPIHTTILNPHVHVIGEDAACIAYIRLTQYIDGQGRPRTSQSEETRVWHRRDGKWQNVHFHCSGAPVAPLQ
Chain of STK11 (human) (Q15831 whole entry, looked up): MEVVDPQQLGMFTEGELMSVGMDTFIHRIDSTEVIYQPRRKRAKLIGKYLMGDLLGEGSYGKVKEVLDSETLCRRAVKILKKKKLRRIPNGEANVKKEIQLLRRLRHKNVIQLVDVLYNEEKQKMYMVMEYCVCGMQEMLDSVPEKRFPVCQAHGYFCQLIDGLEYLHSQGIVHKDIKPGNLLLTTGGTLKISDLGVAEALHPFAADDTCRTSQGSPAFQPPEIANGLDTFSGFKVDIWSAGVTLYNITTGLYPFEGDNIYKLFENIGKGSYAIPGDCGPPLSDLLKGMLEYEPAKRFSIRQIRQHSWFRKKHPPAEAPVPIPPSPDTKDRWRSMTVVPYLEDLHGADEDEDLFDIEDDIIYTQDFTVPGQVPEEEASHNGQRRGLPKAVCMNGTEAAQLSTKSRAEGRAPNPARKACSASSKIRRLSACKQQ
Chain of TSSK2 (human) (Q96PF2 whole entry, looked up): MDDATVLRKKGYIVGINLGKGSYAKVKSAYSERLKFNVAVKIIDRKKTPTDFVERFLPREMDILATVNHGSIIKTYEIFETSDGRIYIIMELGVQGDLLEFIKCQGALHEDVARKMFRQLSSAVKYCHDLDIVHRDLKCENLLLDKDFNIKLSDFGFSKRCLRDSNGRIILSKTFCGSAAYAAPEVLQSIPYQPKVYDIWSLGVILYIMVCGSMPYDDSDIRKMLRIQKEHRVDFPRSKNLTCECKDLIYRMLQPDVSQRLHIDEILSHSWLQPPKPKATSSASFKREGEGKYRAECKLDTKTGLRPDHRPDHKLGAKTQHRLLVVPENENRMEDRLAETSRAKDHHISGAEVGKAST
Chain of STK10 (human) (O94804 whole entry, looked up): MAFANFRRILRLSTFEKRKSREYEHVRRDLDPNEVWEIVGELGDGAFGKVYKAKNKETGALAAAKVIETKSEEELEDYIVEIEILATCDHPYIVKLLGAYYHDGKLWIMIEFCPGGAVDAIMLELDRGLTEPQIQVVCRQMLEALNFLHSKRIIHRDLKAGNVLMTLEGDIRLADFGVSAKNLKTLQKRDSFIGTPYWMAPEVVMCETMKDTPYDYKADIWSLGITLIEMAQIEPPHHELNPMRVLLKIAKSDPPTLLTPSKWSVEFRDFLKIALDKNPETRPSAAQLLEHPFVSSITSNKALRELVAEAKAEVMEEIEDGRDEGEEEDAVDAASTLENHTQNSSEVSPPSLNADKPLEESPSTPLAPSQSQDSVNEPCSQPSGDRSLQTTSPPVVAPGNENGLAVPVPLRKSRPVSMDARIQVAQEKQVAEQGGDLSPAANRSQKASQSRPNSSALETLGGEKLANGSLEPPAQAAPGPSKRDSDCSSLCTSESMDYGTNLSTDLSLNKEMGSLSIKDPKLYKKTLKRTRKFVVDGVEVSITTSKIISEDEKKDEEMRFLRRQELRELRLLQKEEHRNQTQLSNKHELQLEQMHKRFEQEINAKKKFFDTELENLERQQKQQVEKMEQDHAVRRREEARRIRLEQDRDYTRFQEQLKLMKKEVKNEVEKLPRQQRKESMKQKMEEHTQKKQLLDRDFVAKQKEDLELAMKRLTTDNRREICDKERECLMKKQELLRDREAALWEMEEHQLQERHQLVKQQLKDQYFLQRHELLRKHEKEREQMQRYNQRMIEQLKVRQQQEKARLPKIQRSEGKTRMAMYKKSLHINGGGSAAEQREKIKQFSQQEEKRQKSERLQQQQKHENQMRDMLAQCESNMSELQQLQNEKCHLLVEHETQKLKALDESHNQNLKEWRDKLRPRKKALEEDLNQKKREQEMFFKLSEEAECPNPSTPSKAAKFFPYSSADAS
Chain of CDK2 CCNA2 (human) (P20248 whole entry, looked up, other chains not shown): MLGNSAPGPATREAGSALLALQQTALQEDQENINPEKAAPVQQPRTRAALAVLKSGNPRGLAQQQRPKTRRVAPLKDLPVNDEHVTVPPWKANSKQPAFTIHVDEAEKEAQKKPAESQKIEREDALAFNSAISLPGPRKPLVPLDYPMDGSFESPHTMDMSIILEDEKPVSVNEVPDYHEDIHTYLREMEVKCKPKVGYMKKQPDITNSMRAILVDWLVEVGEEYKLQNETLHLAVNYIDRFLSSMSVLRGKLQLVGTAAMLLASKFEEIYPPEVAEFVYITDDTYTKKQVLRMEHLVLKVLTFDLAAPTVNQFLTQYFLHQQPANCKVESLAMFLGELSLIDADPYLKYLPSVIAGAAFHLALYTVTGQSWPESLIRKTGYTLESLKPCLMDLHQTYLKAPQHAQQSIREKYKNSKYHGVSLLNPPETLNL
Chain of DAPK2 (human) (Q9UIK4 whole entry, looked up): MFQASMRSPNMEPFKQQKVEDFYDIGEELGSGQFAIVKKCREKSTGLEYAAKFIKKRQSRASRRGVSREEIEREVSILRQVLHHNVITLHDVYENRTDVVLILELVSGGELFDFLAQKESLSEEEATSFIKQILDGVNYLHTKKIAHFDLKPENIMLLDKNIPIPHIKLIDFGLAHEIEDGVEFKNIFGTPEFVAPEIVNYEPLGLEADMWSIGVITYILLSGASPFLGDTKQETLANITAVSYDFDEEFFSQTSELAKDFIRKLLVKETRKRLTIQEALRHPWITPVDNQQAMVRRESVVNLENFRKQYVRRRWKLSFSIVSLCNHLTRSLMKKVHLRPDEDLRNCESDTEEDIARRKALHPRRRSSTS

**Q.** For CC(C)[C@H](CO)Nc1nc(Nc2cccc(Cl)c2)c2ncn(C(C)C)c2n1, which residual activity (AKT2 (human)) is on record?
**A.** 90%

**Q.** And the residual activity (CAMK1G (human))?
**A.** 94.9%

**Q.** What about the residual activity (CAMK2A (human)) of the same molecule?
**A.** 101%

**Q.** What about the residual activity (CAMK2B (human)) of the same molecule?
**A.** 94.3%

**Q.** What about the residual activity (CAMK2D (human)) of the same molecule?
**A.** 102%

**Q.** What about the residual activity (CDK2 CCNA2 (human)) of the same molecule?
**A.** 6.91%

**Q.** What about the residual activity (CDK3 CCNE1 (human)) of the same molecule?
**A.** 34.5%

**Q.** What about the residual activity (CDK4 CCND1 (human)) of the same molecule?
**A.** 83.4%

**Q.** What about the residual activity (CDK6 CCND3 (human)) of the same molecule?
**A.** 71%

**Q.** What about the residual activity (CHEK1 (human)) of the same molecule?
**A.** 97.9%

**Q.** And the residual activity (CLK1 (human))?
**A.** 67.5%

**Q.** And the residual activity (DAPK1 (human))?
**A.** 99.7%

**Q.** And the residual activity (DAPK2 (human))?
**A.** 111%

**Q.** What about the residual activity (EPHB2 (human)) of the same molecule?
**A.** 99.3%

**Q.** And the residual activity (FLT3 (human))?
**A.** 16.4%

**Q.** What about the residual activity (HCK (human)) of the same molecule?
**A.** 55.6%

**Q.** What about the residual activity (IKBKB (human)) of the same molecule?
**A.** 107%

**Q.** What about the residual activity (INSRR (human)) of the same molecule?
**A.** 88.2%

**Q.** And the residual activity (IRAK4 (human))?
**A.** 88.6%

**Q.** What about the residual activity (JAK2 JH1 JH2 (human)) of the same molecule?
**A.** 97.7%

**Q.** And the residual activity (MAP3K9 (human))?
**A.** 37.8%

**Q.** And the residual activity (MKNK2 (human))?
**A.** 87.5%

**Q.** What about the residual activity (PAK2 (human)) of the same molecule?
**A.** 103%

**Q.** And the residual activity (PAK7 (human))?
**A.** 76.8%

**Q.** What about the residual activity (PDGFRA (human)) of the same molecule?
**A.** 96.9%

**Q.** And the residual activity (PRKACA (human))?
**A.** 102%

**Q.** What about the residual activity (PRKCA (human)) of the same molecule?
**A.** 115%

**Q.** What about the residual activity (PRKCB2 (human)) of the same molecule?
**A.** 88.6%

**Q.** And the residual activity (PRKG2 (human))?
**A.** 89.3%

**Q.** And the residual activity (PRKX (human))?
**A.** 97.4%

**Q.** And the residual activity (ROCK1 (human))?
**A.** 100%

**Q.** And the residual activity (SLK (human))?
**A.** 73.1%

**Q.** What about the residual activity (STK10 (human)) of the same molecule?
**A.** 81.8%

**Q.** What about the residual activity (STK11 (human)) of the same molecule?
**A.** 84.4%

**Q.** And the residual activity (STK3 (human))?
**A.** 90.8%

**Q.** What about the residual activity (SYK (human)) of the same molecule?
**A.** 88.9%

**Q.** What about the residual activity (TAOK3 (human)) of the same molecule?
**A.** 91.1%

**Q.** What about the residual activity (TBK1 (human)) of the same molecule?
**A.** 93%

**Q.** And the residual activity (TGFBR1 (human))?
**A.** 103%

**Q.** And the residual activity (TGFBR2 (human))?
**A.** 98.1%

**Q.** What about the residual activity (TSSK2 (human)) of the same molecule?
**A.** 97.5%

**Q.** And the residual activity (TYRO3 (human))?
**A.** 98.9%

**Q.** What does the source list for COc1cc2nccc(Oc3ccc(NC(=S)NC(=O)c4ccccc4C)cc3)c2cc1OC?
**A.** residual activity (AKT2 (human)): 102%; residual activity (CAMK1G (human)): 99.5%; residual activity (CAMK2A (human)): 85.6%; residual activity (CAMK2B (human)): 104%; residual activity (CAMK2D (human)): 102%; residual activity (CDK2 CCNA2 (human)): 94.2%; residual activity (CDK3 CCNE1 (human)): 86.6%; residual activity (CDK4 CCND1 (human)): 95.1%; residual activity (CDK6 CCND3 (human)): 97.3%; residual activity (CHEK1 (human)): 95.1%; residual activity (CLK1 (human)): 89.9%; residual activity (DAPK1 (human)): 101%; residual activity (DAPK2 (human)): 78.7%; residual activity (EPHB2 (human)): 93.5%; residual activity (FLT3 (human)): 46.6%; residual activity (HCK (human)): 4.93%; residual activity (IKBKB (human)): 99.4%; residual activity (INSRR (human)): 98.2%; residual activity (IRAK4 (human)): 82.4%; residual activity (JAK2 JH1 JH2 (human)): 97.7%; residual activity (MAP3K9 (human)): 99.3%; residual activity (MKNK2 (human)): 94.3%; residual activity (PAK2 (human)): 91.2%; residual activity (PAK7 (human)): 102%; residual activity (PDGFRA (human)): 12.5%; residual activity (PRKACA (human)): 91.8%; residual activity (PRKCA (human)): 91.3%; residual activity (PRKCB2 (human)): 102%; residual activity (PRKG2 (human)): 90.5%; residual activity (PRKX (human)): 100%; residual activity (ROCK1 (human)): 90.5%; residual activity (SLK (human)): 6.2%; residual activity (STK10 (human)): 11.9%; residual activity (STK11 (human)): 106%; residual activity (STK3 (human)): 86%; residual activity (SYK (human)): 95.5%; residual activity (TAOK3 (human)): 87.9%; residual activity (TBK1 (human)): 103%; residual activity (TGFBR1 (human)): 98%; residual activity (TGFBR2 (human)): 96.7%; residual activity (TSSK2 (human)): 86.7%; residual activity (TYRO3 (human)): 92.2%
